Test systems include HOP-62 NSCLC; MDA-MB-435; NCI-H460 lung; HT29 colon; MALME-3M melanoma; RXF 393 renal; HL-60(TB) leukemia; MDA-MB-231 breast; SK-OV-3 ovarian; HCT-116 colon; A498 renal; NCI-H226 lung; BT-549 breast; RPMI-8226 leukemia.
Holding throughout (assay): DTP human tumour cell line panel, 48 h

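Five concentrations, 48 hours, 96-well plates. TGI is the concentration that stops growth completely.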

By TGI is commonly meant the concentration giving total growth inhibition. A lower TGI goes with greater sensitivity of the cells. Consider `CC(C)(C)Cc1cc(O)ccc1O`, for which the total growth inhibition concentration (TGI) in the experiment with HOP-62 NSCLC, with MDA-MB-435, with NCI-H460 lung, in the experiment with HT29 colon, with MALME-3M melanoma and with RXF 393 renal was over 100 µM each time. The TGI in the experiment on HL-60(TB) leukemia is 26.6 µM; in the experiment with MDA-MB-231 breast, over 100 µM; with SK-OV-3 ovarian it was over 100 µM; with HCT-116 colon, over 100 µM; with A498 renal it was over 100 µM; in the experiment on NCI-H226 lung, over 100 µM. The same compound yielded a TGI with BT-549 breast of over 100 µM.

Consider `Cc1ccc(C2=Nn3c(nc4sc5c(c4c3=O)CCCC5)SC2)cc1`, for which the TGI with HOP-62 NSCLC, with MDA-MB-435, in the experiment on NCI-H460 lung, with HT29 colon, in the experiment on RPMI-8226 leukemia and with MALME-3M melanoma was over 100 µM throughout. In addition, the TGI in the experiment on RXF 393 renal, in the experiment on HL-60(TB) leukemia, with MDA-MB-231 breast, with SK-OV-3 ovarian, in the experiment with HCT-116 colon and with A498 renal was over 100 µM each time. Also, the TGI with NCI-H226 lung and in the experiment on BT-549 breast was over 100 µM in each case.

`COC(=O)/C=C/c1ccc2c(c1)[C@H](C(=O)OC)[C@@H](c1ccc(O)cc1)O2`: the total growth inhibition concentration (TGI) with HOP-62 NSCLC was over 100 µM; in the experiment on MDA-MB-435, 16.2 µM; in the experiment on NCI-H460 lung, over 100 µM; in the experiment with HT29 colon, over 100 µM; in the experiment with MALME-3M melanoma, 80.6 µM; with HL-60(TB) leukemia it was 67.6 µM. Further, the TGI with MDA-MB-231 breast is over 100 µM; in the experiment with SK-OV-3 ovarian it was over 100 µM; in the experiment with HCT-116 colon it was over 100 µM; with A498 renal it was over 100 µM; in the experiment on NCI-H226 lung, over 100 µM; with BT-549 breast it was 46.4 µM.

As to `COC(=O)/C(C#N)=C(/NCc1ccccc1)Nc1ccccc1`, the concentration for total growth inhibition (TGI) in the experiment with HOP-62 NSCLC, in the experiment on MDA-MB-435, in the experiment with NCI-H460 lung, with HT29 colon, in the experiment on RPMI-8226 leukemia and in the experiment with MALME-3M melanoma was over 100 µM throughout. Moreover, the TGI in the experiment with RXF 393 renal, with HL-60(TB) leukemia, in the experiment on MDA-MB-231 breast, with SK-OV-3 ovarian, in the experiment on HCT-116 colon and in the experiment on A498 renal was over 100 µM throughout. For the same compound, the TGI with NCI-H226 lung and in the experiment on BT-549 breast was over 100 µM throughout.

As for `CC(C(=O)O)C1Nc2ccccc2NC1=O` (stereo unspecified), the total growth inhibition concentration (TGI) in the experiment on MDA-MB-435, in the experiment with NCI-H460 lung, in the experiment on HT29 colon, with RPMI-8226 leukemia, with MALME-3M melanoma and with RXF 393 renal was over 100 µM in each case. The concentration for total growth inhibition (TGI) in the experiment on HL-60(TB) leukemia, with MDA-MB-231 breast, with SK-OV-3 ovarian, in the experiment with HCT-116 colon, with A498 renal and in the experiment on NCI-H226 lung was over 100 µM in each case. Besides, in the experiment on BT-549 breast, the total growth inhibition concentration (TGI) is over 100 µM.

With `COCCNC1CCC(=O)c2[nH]c3ccccc3c21` (stereo unspecified), the TGI with HOP-62 NSCLC, in the experiment with MDA-MB-435, in the experiment on NCI-H460 lung, with HT29 colon, with RPMI-8226 leukemia and in the experiment with MALME-3M melanoma was over 100 µM each time. The TGI in the experiment on RXF 393 renal, with HL-60(TB) leukemia, with MDA-MB-231 breast, in the experiment with HCT-116 colon, in the experiment with A498 renal and with NCI-H226 lung was over 100 µM in each case. This compound came in with a concentration for total growth inhibition (TGI) in the experiment with BT-549 breast of over 100 µM.

On to `C=C1C(=O)OC2/C=C(\C)CC/C=C(\C)CC(OC(=O)/C(=C/CO)CO)[C@@H]12` (stereo partly specified), for which the TGI was 19 µM in the experiment with MDA-MB-435; 48.8 µM with NCI-H460 lung; 20.6 µM with HT29 colon; 5.74 µM in the experiment on RPMI-8226 leukemia; 5.81 µM with MALME-3M melanoma; 21.3 µM with RXF 393 renal. Also, the TGI was 12.6 µM in the experiment on HL-60(TB) leukemia; 28.2 µM in the experiment with MDA-MB-231 breast; over 100 µM in the experiment with SK-OV-3 ovarian; 10.7 µM in the experiment with HCT-116 colon; 34.6 µM with A498 renal; over 80.4 µM in the experiment with NCI-H226 lung. The compound also showed a total growth inhibition concentration (TGI) in the experiment with BT-549 breast of 26.5 µM.

As for `N#CCN1CCN(CC#N)CCN(CC#N)CCN(CC#N)CC1`, the total growth inhibition concentration (TGI) with HOP-62 NSCLC, in the experiment with MDA-MB-435, in the experiment on NCI-H460 lung, in the experiment on HT29 colon, in the experiment with RPMI-8226 leukemia and in the experiment with MALME-3M melanoma was over 100 µM throughout. The TGI with RXF 393 renal, in the experiment with HL-60(TB) leukemia, in the experiment with MDA-MB-231 breast, with SK-OV-3 ovarian, with HCT-116 colon and with A498 renal was over 100 µM each time. Besides, the TGI with NCI-H226 lung and in the experiment with BT-549 breast was over 100 µM each time.

In the case of `Cc1ccc(/C=C2\CCCCCC2=O)cc1`, the concentration for total growth inhibition (TGI) with HOP-62 NSCLC, in the experiment on MDA-MB-435, with NCI-H460 lung, in the experiment with HT29 colon, in the experiment with RPMI-8226 leukemia and with MALME-3M melanoma was over 100 µM in each case. Also, the TGI with HL-60(TB) leukemia, in the experiment with MDA-MB-231 breast, in the experiment with SK-OV-3 ovarian, with HCT-116 colon, with A498 renal and in the experiment with NCI-H226 lung was over 100 µM in each case. In addition, the total growth inhibition concentration (TGI) with BT-549 breast is over 100 µM.

For `Cc1ncc([N+](=O)[O-])n1CCNC(=O)Cn1ccnc1[N+](=O)[O-]`, the TGI with HOP-62 NSCLC, with MDA-MB-435, in the experiment with NCI-H460 lung, in the experiment with HT29 colon, with MALME-3M melanoma and with HL-60(TB) leukemia was over 100 µM in each case. Moreover, the total growth inhibition concentration (TGI) with MDA-MB-231 breast, in the experiment on SK-OV-3 ovarian, in the experiment with HCT-116 colon, in the experiment on A498 renal, with NCI-H226 lung and in the experiment with BT-549 breast was over 100 µM each time.
